Experimental findings from patent US12404262B2 (priority 2021, dated 2025) are described below.

For this data set the following is noted: 1.0% DMSO, 24-hour incubation at ambient temperature, maximum theoretical 100 μM; for pH 2 solubility: 0.1N HCl, first value of the cell; for pH 7 solubility: 1×PBS buffer (pH 7.4), second value of the cell.

Consider `CN1CCN(CC(=O)N(c2nn(CC(F)(F)F)c3c(-c4ccc(C#CC(C)(C)S(C)(=O)=O)nc4[C@H](Cc4cc(F)cc(F)c4)NC(=O)Cn4nc(C(F)(F)F)c5c4C(F)(F)[C@@H]4C[C@H]54)ccc(Cl)c23)S(C)(=O)=O)CC1` [Compound 6, (N-(4-chloro-7-(2-((S)-1-(2-((3bS,4aR)-5,5-difluoro-3-(trifluoromethyl)-3b,4,4a,5-tetrahydro-1H-cyclopropa[3,4]cyclopenta[1,2-c]pyrazol-1-yl)acetamido)-2-(3,5-difluorophenyl)ethyl)-6-(3-methyl-3-(methylsulfonyl)but-1-yn-1-yl)pyridin-3-yl)-1-(2,2,2-trifluoroethyl)-1H-indazol-3-yl)-2-(4-methylpiperazin-1-yl)-N-(methylsulfonyl)acetamide)], for which the “pH 2 solubility” value is given as 50 μM and the “pH 7 solubility” value is 3 μM.

Take `C[C@H](N)C(=O)OCN(c1nn(CC(F)(F)F)c2c(-c3ccc(C#CC(C)(C)S(C)(=O)=O)nc3[C@H](Cc3cc(F)cc(F)c3)NC(=O)Cn3nc(C(F)(F)F)c4c3C(F)(F)[C@@H]3C[C@H]43)ccc(Cl)c12)S(C)(=O)=O` [Compound 27, (N-(4-chloro-7-(2-((S)-1-(2-((3bS,4aR)-5,5-difluoro-3-(trifluoromethyl)-3b,4,4a,5-tetrahydro-1H-cyclopropa[3,4]cyclopenta[1,2-c]pyrazol-1-yl)acetamido)-2-(3,5-difluorophenyl)ethyl)-6-(3-methyl-3-(methylsulfonyl)but-1-yn-1-yl)pyridin-3-yl)-1-(2,2,2-trifluoroethyl)-1H-indazol-3-yl)methylsulfonamido)methyl L-alaninate]: the “pH 2 solubility” value came to 20 μM and the “pH 7 solubility” value was 2 μM.

On to `CC(C)(C#Cc1ccc(-c2ccc(Cl)c3c(N(C(=O)OCCOCCOCCOCCOP(=O)(O)O)S(C)(=O)=O)nn(CC(F)(F)F)c23)c([C@H](Cc2cc(F)cc(F)c2)NC(=O)Cn2nc(C(F)(F)F)c3c2C(F)(F)[C@@H]2C[C@H]32)n1)S(C)(=O)=O` [Compound 110, 2-(2-(2-(2-(phosphonooxy)ethoxy)ethoxy)ethoxy)ethyl (4-chloro-7-(2-((S)-1-(2-((3bS,4aR)-5,5-difluoro-3-(trifluoromethyl)-3b,4,4a,5-tetrahydro-1H-cyclopropa[3,4]cyclopenta[1,2-c]pyrazol-1-yl)acetamido)-2-(3,5-difluorophenyl)ethyl)-6-(3-methyl-3-(methylsulfonyl)but-1-yn-1-yl)pyridin-3-yl)-1-(2,2,2-trifluoroethyl)-1H-indazol-3-yl)(methylsulfonyl)carbamate], for which the “pH 2 solubility” value is on record as 1 μM and the “pH 7 solubility” value was found to be 100 μM.

`C[C@@H](O)[C@H](NC(=O)N(c1nn(CC(F)(F)F)c2c(-c3ccc(C#CC(C)(C)S(C)(=O)=O)nc3[C@H](Cc3cc(F)cc(F)c3)NC(=O)Cn3nc(C(F)(F)F)c4c3C(F)(F)[C@@H]3C[C@H]43)ccc(Cl)c12)S(C)(=O)=O)C(=O)O` [Compound 61, ((4-chloro-7-(2-((S)-1-(2-((3bS,4aR)-5,5-difluoro-3-(trifluoromethyl)-3b,4,4a,5-tetrahydro-1H-cyclopropa[3,4]cyclopenta[1,2-c]pyrazol-1-yl)acetamido)-2-(3,5-difluorophenyl)ethyl)-6-(3-methyl-3-(methylsulfonyl)but-1-yn-1-yl)pyridin-3-yl)-1-(2,2,2-trifluoroethyl)-1H-indazol-3-yl)(methylsulfonyl)carbamoyl)-L-threonine]: the “pH 2 solubility” value came out at 1 μM and the “pH 7 solubility” value is listed as 9 μM.

Take `C[C@@H](CC(=O)O)OC(=O)N(c1nn(CC(F)(F)F)c2c(-c3ccc(C#CC(C)(C)S(C)(=O)=O)nc3[C@H](Cc3cc(F)cc(F)c3)NC(=O)Cn3nc(C(F)(F)F)c4c3C(F)(F)[C@@H]3C[C@H]43)ccc(Cl)c12)S(C)(=O)=O` [Compound 120, (S)-3-(((4-chloro-7-(2-((S)-1-(2-((3bS,4aR)-5,5-difluoro-3-(trifluoromethyl)-3b,4,4a,5-tetrahydro-1H-cyclopropa[3,4]cyclopenta[1,2-c]pyrazol-1-yl)acetamido)-2-(3,5-difluorophenyl)ethyl)-6-(3-methyl-3-(methylsulfonyl)but-1-yn-1-yl)pyridin-3-yl)-1-(2,2,2-trifluoroethyl)-1H-indazol-3-yl)(methylsulfonyl)carbamoyl)oxy)butanoic acid]: the “pH 2 solubility” value is 1 μM and the “pH 7 solubility” value is recorded as 9 μM.

Take `CC(C)(C#Cc1ccc(-c2ccc(Cl)c3c(N(C(=O)C(=O)N[C@@H](CC(=O)O)C(=O)O)S(C)(=O)=O)nn(CC(F)(F)F)c23)c([C@H](Cc2cc(F)cc(F)c2)NC(=O)Cn2nc(C(F)(F)F)c3c2C(F)(F)[C@@H]2C[C@H]32)n1)S(C)(=O)=O` [Compound 12, (2-(N-(4-chloro-7-(2-((S)-1-(2-((3bS,4aR)-5,5-difluoro-3-(trifluoromethyl)-3b,4,4a,5-tetrahydro-1H-cyclopropa[3,4]cyclopenta[1,2-c]pyrazol-1-yl)acetamido)-2-(3,5-difluorophenyl)ethyl)-6-(3-methyl-3-(methylsulfonyl)but-1-yn-1-yl)pyridin-3-yl)-1-(2,2,2-trifluoroethyl)-1H-indazol-3-yl)methylsulfonamido)-2-oxoacetyl)-L-aspartic acid]: the “pH 2 solubility” value is 10/10 μM and the “pH 7 solubility” value is on record as 10/10 μM.

With `CC(C)(C#Cc1ccc(-c2ccc(Cl)c3c(N(C(=O)NCCO)S(C)(=O)=O)nn(CC(F)(F)F)c23)c([C@H](Cc2cc(F)cc(F)c2)NC(=O)Cn2nc(C(F)(F)F)c3c2C(F)(F)[C@@H]2C[C@H]32)n1)S(C)(=O)=O` [Compound 40, N—((S)-1-(3-(4-chloro-3-(N-((2-hydroxyethyl)carbamoyl)methylsulfonamido)-1-(2,2,2-trifluoroethyl)-1H-indazol-7-yl)-6-(3-methyl-3-(methylsulfonyl)but-1-yn-1-yl)pyridin-2-yl)-2-(3,5-difluorophenyl)ethyl)-2-((3bS,4aR)-5,5-difluoro-3-(trifluoromethyl)-3b,4,4a,5-tetrahydro-1H-cyclopropa[3,4]cyclopenta[1,2-c]pyrazol-1-yl)acetamide], the “pH 2 solubility” value was 1 μM and the “pH 7 solubility” value is listed as 2 μM.

With `CC(C)(C#Cc1ccc(-c2ccc(Cl)c3c(N(C(=O)OCOC(=O)/C=C/C(=O)O)S(C)(=O)=O)nn(CC(F)(F)F)c23)c([C@H](Cc2cc(F)cc(F)c2)NC(=O)Cn2nc(C(F)(F)F)c3c2C(F)(F)[C@@H]2C[C@H]32)n1)S(C)(=O)=O` [Compound 93, (E)-4-((((4-chloro-7-(2-((S)-1-(2-((3bS,4aR)-5,5-difluoro-3-(trifluoromethyl)-3b,4,4a,5-tetrahydro-1H-cyclopropa[3,4]cyclopenta[1,2-c]pyrazol-1-yl)acetamido)-2-(3,5-difluorophenyl)ethyl)-6-(3-methyl-3-(methylsulfonyl)but-1-yn-1-yl)pyridin-3-yl)-1-(2,2,2-trifluoroethyl)-1H-indazol-3-yl)(methylsulfonyl)carbamoyl)oxy)methoxy)-4-oxobut-2-enoic acid], the “pH 2 solubility” value turned out to be 1 μM and the “pH 7 solubility” value is listed as 22 μM.

Regarding `C[C@@H](C(=O)OCN(c1nn(CC(F)(F)F)c2c(-c3ccc(C#CC(C)(C)S(C)(=O)=O)nc3[C@H](Cc3cc(F)cc(F)c3)NC(=O)Cn3nc(C(F)(F)F)c4c3C(F)(F)[C@@H]3C[C@H]43)ccc(Cl)c12)S(C)(=O)=O)N(C)C` [Compound 22, (N-(4-chloro-7-(2-((S)-1-(2-((3bS,4aR)-5,5-difluoro-3-(trifluoromethyl)-3b,4,4a,5-tetrahydro-1H-cyclopropa[3,4]cyclopenta[1,2-c]pyrazol-1-yl)acetamido)-2-(3,5-difluorophenyl)ethyl)-6-(3-methyl-3-(methylsulfonyl)but-1-yn-1-yl)pyridin-3-yl)-1-(2,2,2-trifluoroethyl)-1H-indazol-3-yl)methylsulfonamido)methyl dimethyl-L-alaninate], the “pH 2 solubility” value was determined as 45 μM and the “pH 7 solubility” value is given as 3 μM.

For `CC(C)[C@H](N)C(=O)OCN(c1nn(CC(F)(F)F)c2c(-c3ccc(C#CC(C)(C)S(C)(=O)=O)nc3[C@H](Cc3cc(F)cc(F)c3)NC(=O)Cn3nc(C(F)(F)F)c4c3C(F)(F)[C@@H]3C[C@H]43)ccc(Cl)c12)S(C)(=O)=O` [Compound 28, (N-(4-chloro-7-(2-((S)-1-(2-((3bS,4aR)-5,5-difluoro-3-(trifluoromethyl)-3b,4,4a,5-tetrahydro-1H-cyclopropa[3,4]cyclopenta[1,2-c]pyrazol-1-yl)acetamido)-2-(3,5-difluorophenyl)ethyl)-6-(3-methyl-3-(methylsulfonyl)but-1-yn-1-yl)pyridin-3-yl)-1-(2,2,2-trifluoroethyl)-1H-indazol-3-yl)methylsulfonamido)methyl L-valinate], the “pH 2 solubility” value is on record as 29 μM and the “pH 7 solubility” value is reported as 1 μM.

In the case of `CC(C)(C#Cc1ccc(-c2ccc(Cl)c3c(N(C(=O)OCCOCCOP(=O)(O)O)S(C)(=O)=O)nn(CC(F)(F)F)c23)c([C@H](Cc2cc(F)cc(F)c2)NC(=O)Cn2nc(C(F)(F)F)c3c2C(F)(F)[C@@H]2C[C@H]32)n1)S(C)(=O)=O` [Compound 106, 2-(2-(phosphonooxy)ethoxy)ethyl (4-chloro-7-(2-((S)-1-(2-((3bS,4aR)-5,5-difluoro-3-(trifluoromethyl)-3b,4,4a,5-tetrahydro-1H-cyclopropa[3,4]cyclopenta[1,2-c]pyrazol-1-yl)acetamido)-2-(3,5-difluorophenyl)ethyl)-6-(3-methyl-3-(methylsulfonyl)but-1-yn-1-yl)pyridin-3-yl)-1-(2,2,2-trifluoroethyl)-1H-indazol-3-yl)(methylsulfonyl)carbamate], the “pH 2 solubility” value was 4 μM and the “pH 7 solubility” value was 100 μM.
